{"source": "patent US8148532B2", "about": "“Spiro substituted compounds as angiogenesis inhibitors” (priority 2007, dated 2012)", "type_in_all_cases": "biochemical", "key": {"FGFR1(h)": {"target": "T1, FGFR1(h) (Homo sapiens, UniProt P11362)", "T1 construct": "purchased Millipore Upstate Ltd", "T1 sequence (P11362 22-822)": "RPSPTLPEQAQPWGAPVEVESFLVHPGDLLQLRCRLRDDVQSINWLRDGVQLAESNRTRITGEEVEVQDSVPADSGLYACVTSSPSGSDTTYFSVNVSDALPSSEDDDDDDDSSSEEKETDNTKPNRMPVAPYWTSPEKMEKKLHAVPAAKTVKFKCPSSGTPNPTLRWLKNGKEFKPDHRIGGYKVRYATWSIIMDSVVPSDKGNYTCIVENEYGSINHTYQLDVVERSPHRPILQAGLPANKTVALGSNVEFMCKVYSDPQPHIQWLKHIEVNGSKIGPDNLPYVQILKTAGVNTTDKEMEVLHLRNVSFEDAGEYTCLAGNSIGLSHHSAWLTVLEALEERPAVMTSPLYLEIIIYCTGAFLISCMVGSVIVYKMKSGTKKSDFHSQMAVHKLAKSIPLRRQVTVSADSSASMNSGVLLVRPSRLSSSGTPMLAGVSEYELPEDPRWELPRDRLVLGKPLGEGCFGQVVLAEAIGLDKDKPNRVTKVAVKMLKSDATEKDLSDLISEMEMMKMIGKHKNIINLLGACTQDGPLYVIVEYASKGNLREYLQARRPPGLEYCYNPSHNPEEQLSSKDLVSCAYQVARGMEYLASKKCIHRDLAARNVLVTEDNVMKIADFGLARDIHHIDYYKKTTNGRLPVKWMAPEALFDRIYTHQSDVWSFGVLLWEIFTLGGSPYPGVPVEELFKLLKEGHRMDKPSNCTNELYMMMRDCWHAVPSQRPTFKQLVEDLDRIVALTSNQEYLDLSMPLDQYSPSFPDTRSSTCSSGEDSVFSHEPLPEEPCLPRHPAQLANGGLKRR", "assay": "in vitro tyrosine kinase inhibition, FGFR1(h)", "source_text": "(§1) Several in vitro tyrosine kinase inhibition activities can be measured according to the description in Rewcastle, G W, J. Med. Chem. 1996, 39, 918-928 and Edwards M, International Biotechnology Lab 5 (3), 19-25, 1987. Oncogene, 1990, 5: 519-524. The Baculovirus Expression System: A Laboratory Guide, L. A. King 1992. Sambrook et al, 1989, Molecular cloning—A Laboratory Manual, 2nd edition, Cold Spring Harbour Laboratory Press. O'Reilly et al, 1992, Baculovirus Expression Vectors—A Laboratory Manual, W. H. Freeman and Co, New York.\n(§2) Receptor tyrosine kinase can be obtained in partially purified form from A-431 cells similar to those described by Carpenter et al., J. Biol. Chem., 1979, 254, 4884, Cohen et al., J. Biol. Chem., 1982, 257, 1523 and by Braun et al., J. Biol. Chem., 1984, 259, 2051. Some of these tests can also be contracted with Millipore Upstate Ltd for screening."}, "Flt1(h)": {"target": "T2, Flt1(h) (Homo sapiens, UniProt P17948)", "T2 construct": "purchased Millipore Upstate Ltd", "T2 sequence (P17948 27-1338)": "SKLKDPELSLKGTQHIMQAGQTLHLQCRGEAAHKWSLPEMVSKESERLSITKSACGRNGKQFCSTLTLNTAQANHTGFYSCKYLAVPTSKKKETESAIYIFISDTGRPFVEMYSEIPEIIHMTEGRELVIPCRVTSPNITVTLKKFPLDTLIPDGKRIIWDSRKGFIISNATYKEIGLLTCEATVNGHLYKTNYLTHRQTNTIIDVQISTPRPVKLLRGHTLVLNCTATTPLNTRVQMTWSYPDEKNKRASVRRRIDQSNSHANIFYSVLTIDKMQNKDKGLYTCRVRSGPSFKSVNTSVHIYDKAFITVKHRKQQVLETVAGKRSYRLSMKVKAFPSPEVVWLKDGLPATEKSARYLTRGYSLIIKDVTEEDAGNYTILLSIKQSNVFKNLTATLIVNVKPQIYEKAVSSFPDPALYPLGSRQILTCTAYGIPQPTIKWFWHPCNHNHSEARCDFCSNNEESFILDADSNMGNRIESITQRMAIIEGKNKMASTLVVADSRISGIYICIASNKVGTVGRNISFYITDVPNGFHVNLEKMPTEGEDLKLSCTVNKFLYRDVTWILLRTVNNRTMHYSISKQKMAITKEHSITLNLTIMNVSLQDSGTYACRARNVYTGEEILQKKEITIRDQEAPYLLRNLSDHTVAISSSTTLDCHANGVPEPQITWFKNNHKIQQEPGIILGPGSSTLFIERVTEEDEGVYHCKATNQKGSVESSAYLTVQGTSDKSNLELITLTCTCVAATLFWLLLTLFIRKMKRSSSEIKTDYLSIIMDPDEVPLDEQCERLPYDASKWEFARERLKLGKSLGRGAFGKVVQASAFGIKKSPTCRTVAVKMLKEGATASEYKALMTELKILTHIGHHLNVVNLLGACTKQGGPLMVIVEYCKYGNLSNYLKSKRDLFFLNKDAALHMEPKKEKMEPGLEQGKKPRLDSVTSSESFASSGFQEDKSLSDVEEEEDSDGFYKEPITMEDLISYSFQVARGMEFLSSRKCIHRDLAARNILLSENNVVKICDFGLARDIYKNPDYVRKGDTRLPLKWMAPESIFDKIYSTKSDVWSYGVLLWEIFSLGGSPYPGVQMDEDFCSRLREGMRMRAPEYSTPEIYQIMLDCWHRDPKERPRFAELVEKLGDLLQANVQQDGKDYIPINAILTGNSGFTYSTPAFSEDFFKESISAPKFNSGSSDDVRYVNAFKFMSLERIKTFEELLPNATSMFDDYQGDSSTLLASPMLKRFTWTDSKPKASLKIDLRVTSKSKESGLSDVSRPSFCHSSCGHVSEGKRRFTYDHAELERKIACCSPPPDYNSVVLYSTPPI", "assay": "in vitro tyrosine kinase inhibition, Flt1(h)", "source_text": "as §1, §2"}, "KDR(h)": {"target": "T3, KDR(h) (Homo sapiens, UniProt P35968)", "T3 construct": "purchased Millipore Upstate Ltd", "T3 sequence (P35968 20-1356)": "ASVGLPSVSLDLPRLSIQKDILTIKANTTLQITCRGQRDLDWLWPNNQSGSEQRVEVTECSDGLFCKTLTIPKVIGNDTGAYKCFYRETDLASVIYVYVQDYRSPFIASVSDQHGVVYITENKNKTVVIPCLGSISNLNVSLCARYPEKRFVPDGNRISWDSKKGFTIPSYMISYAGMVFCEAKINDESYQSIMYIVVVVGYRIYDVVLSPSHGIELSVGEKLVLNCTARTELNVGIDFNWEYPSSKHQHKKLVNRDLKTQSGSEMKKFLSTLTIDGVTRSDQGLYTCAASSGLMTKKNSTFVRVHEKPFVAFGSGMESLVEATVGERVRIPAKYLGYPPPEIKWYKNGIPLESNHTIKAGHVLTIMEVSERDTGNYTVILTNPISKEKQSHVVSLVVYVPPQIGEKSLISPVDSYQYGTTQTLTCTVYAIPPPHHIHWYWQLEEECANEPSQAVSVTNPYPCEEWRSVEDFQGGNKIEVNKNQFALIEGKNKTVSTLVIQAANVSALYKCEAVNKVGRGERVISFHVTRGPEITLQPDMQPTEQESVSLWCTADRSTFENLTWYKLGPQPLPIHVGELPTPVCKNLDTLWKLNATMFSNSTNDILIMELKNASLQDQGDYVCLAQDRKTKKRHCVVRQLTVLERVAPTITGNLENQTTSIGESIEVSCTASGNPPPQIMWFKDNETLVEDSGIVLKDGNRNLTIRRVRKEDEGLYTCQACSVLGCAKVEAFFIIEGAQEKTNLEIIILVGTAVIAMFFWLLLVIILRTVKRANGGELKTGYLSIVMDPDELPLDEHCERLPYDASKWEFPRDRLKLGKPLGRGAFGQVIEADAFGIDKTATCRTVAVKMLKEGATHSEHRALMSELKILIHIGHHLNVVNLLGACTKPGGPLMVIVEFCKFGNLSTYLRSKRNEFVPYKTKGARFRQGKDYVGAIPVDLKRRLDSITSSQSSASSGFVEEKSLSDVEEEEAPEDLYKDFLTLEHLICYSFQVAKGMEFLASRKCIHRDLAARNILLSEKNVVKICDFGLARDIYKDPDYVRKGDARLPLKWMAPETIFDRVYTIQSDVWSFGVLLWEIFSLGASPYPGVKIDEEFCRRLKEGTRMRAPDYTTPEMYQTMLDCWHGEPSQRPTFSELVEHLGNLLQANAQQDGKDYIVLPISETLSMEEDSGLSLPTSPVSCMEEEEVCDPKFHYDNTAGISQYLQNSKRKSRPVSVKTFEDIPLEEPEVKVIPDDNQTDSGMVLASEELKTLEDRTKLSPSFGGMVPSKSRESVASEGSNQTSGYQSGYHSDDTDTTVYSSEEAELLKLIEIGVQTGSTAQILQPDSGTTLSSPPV", "assay": "in vitro tyrosine kinase inhibition, KDR(h)", "source_text": "as §1, §2"}, "Flt4(h)": {"target": "T4, Flt4(h) (Homo sapiens, UniProt P35916)", "T4 construct": "purchased Millipore Upstate Ltd", "T4 sequence (P35916 25-1363)": "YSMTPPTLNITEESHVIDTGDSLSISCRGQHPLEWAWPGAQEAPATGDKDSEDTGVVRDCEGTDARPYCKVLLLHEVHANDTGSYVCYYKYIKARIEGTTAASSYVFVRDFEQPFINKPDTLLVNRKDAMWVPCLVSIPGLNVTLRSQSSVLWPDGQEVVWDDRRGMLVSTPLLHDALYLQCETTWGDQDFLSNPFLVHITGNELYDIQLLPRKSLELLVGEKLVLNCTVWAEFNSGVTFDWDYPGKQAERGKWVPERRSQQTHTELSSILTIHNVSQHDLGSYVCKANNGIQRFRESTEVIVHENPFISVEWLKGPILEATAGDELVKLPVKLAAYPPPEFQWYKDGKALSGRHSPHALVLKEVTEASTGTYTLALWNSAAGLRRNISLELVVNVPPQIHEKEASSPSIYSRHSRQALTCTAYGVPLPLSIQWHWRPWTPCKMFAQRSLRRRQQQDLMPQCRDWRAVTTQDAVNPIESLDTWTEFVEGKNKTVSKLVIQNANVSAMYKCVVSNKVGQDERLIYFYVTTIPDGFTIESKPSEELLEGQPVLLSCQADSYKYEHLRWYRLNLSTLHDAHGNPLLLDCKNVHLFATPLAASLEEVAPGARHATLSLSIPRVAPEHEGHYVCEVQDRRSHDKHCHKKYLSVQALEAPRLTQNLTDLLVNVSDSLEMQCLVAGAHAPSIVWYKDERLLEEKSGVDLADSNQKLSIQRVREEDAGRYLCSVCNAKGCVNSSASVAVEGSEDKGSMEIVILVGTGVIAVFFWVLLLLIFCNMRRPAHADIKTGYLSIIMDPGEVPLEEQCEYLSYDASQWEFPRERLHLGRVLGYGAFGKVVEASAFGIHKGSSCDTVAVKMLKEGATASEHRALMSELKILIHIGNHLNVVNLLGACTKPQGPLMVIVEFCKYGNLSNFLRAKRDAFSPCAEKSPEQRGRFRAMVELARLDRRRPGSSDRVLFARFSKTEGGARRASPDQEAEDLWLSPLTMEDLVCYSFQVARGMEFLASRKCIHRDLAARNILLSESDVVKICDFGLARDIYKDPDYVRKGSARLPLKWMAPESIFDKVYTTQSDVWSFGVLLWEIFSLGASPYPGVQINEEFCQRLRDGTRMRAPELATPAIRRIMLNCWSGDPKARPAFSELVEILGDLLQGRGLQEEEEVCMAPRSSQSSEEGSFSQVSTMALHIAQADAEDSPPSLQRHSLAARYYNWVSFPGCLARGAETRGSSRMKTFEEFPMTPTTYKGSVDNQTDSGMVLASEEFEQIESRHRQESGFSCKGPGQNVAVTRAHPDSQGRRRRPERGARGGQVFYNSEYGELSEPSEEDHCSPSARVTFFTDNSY", "assay": "in vitro tyrosine kinase inhibition, Flt4(h)", "source_text": "as §1, §2"}}, "data": [{"compound": "COc1cc2c(Oc3ccc4[nH]c(C)cc4c3F)ccnc2cc1OCC1(N)CC1", "note": "[AL3818]", "values": [{"measurement": "IC50", "setting": "FGFR1(h)", "result": 20, "unit": "nM"}, {"measurement": "IC50", "setting": "Flt1(h)", "result": 4, "unit": "nM"}, {"measurement": "IC50", "setting": "KDR(h)", "result": 45, "unit": "nM"}, {"measurement": "IC50", "setting": "Flt4(h)", "result": 1, "unit": "nM"}]}]}
